We go through ten molecules from PubChem BioAssay (NCI).

Among the test systems are UACC-257 melanoma; NCI-H460 lung; SR leukemia; UO-31 renal; ACHN renal; SNB-75 CNS; CAKI-1 renal; OVCAR-3 ovarian; SK-MEL-2 melanoma; IGROV1 ovarian; COLO 205 colon; SK-MEL-28 melanoma; NCI-H226 lung; SW-620 colon; SF-268 CNS; PC-3 prostate; MCF7 breast.
What all share (experiment): NCI-60 cell line screen, 48 h

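Method: 48-hour compound exposure of cells in 96-well plates, five concentrations, linear interpolation of endpoints. Definition used: TGI = concentration required for complete inhibition of growth.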 Where a SMILES comes first, the peptide text is derived from it. [ ]: non-standard residue; d: D form. The star is where a group is joined. ξ: configuration not given here. NMeF = CN[C@@H](Cc1ccccc1)C(=O)O; ξNMeV = CNC(C(=O)O)C(C)C; Boc = CC(C)(C)OC(=O)*; OBn = c1ccc(CO*)cc1

Regarding `COc1cc(C(C)c2cc3c(cc2OCCCCOc2cc4c(cc2C(C)c2cc(OC)c(OC)c(OC)c2)OCO4)OCO3)cc(OC)c1OC` (stereo not drawn), the TGI is more than 100 µM in the test on UACC-257 melanoma; more than 100 µM in the test on NCI-H460 lung; more than 100 µM with SR leukemia; more than 100 µM in the test with UO-31 renal; more than 100 µM with ACHN renal; 69.7 µM in the test on SNB-75 CNS. In addition, the TGI was more than 100 µM in the test on CAKI-1 renal; 58.2 µM with OVCAR-3 ovarian; more than 100 µM with SK-MEL-2 melanoma; more than 100 µM in the test with IGROV1 ovarian; more than 100 µM with COLO 205 colon; more than 100 µM with SK-MEL-28 melanoma. The TGI in the test with NCI-H226 lung was 80.6 µM; in the test with SW-620 colon, 96 µM; in the test with SF-268 CNS, more than 100 µM.

With `CC(C)C(C(=O)N1CCC[C@@H]1C(=O)OCc1ccccc1)N(C)C(=O)C(C(C)C)N(C)C(=O)[C@H](Cc1ccccc1)N(C)C(=O)[C@H](NC(=O)OC(C)(C)C)C(C)C` (stereo partly drawn) (Boc-[dV][NMeF][ξNMeV][ξNMeV][dP]-OBn), the TGI with UACC-257 melanoma, in the test on NCI-H460 lung, in the test with SR leukemia, in the test with UO-31 renal, in the test on ACHN renal and in the test with SNB-75 CNS was more than 100 µM throughout. Further, the TGI with OVCAR-3 ovarian, in the test on SK-MEL-2 melanoma, in the test on IGROV1 ovarian, in the test on COLO 205 colon, in the test with SK-MEL-28 melanoma and in the test with NCI-H226 lung was more than 100 µM in each case. Moreover, the TGI with SW-620 colon and in the test on SF-268 CNS was more than 100 µM in each case.

Consider `COc1ccc(C2ON(c3ccccn3)CC=C2C)cc1` (stereo not drawn), for which the TGI with UACC-257 melanoma, in the test with NCI-H460 lung, in the test on SR leukemia, with UO-31 renal, in the test on ACHN renal and in the test with SNB-75 CNS was more than 100 µM in each case. Besides, the TGI in the test on CAKI-1 renal, in the test with OVCAR-3 ovarian, in the test on SK-MEL-2 melanoma, in the test on IGROV1 ovarian, in the test on COLO 205 colon and with SK-MEL-28 melanoma was more than 100 µM each time. Also, the TGI with NCI-H226 lung, in the test with SW-620 colon and in the test with SF-268 CNS was more than 100 µM each time.

`O=C1C2CCC(C2)C12CC1(c3ccccc3)C(=O)c3ccccc3N1O2` (stereo not drawn): the TGI in the test on UACC-257 melanoma, with SR leukemia, with UO-31 renal, with ACHN renal, with SNB-75 CNS and in the test on IGROV1 ovarian was more than 100 µM each time. In addition, the TGI with COLO 205 colon, in the test with SK-MEL-28 melanoma, with NCI-H226 lung, with SW-620 colon and with SF-268 CNS was more than 100 µM in each case.

In the case of `CC12CC[C@H](O)C(C)(C)[C@H]1CC[C@](C)(O)C2COc1ccc2ccc(=O)oc2c1` (stereo partly drawn), the TGI in the test with UACC-257 melanoma, in the test with NCI-H460 lung, in the test with SR leukemia, in the test on UO-31 renal, with ACHN renal and in the test on SNB-75 CNS was more than 100 µM throughout. Further, the TGI with OVCAR-3 ovarian, in the test with SK-MEL-2 melanoma, in the test on IGROV1 ovarian, in the test on COLO 205 colon, in the test with SK-MEL-28 melanoma and in the test on NCI-H226 lung was more than 100 µM in each case. Further, the TGI in the test with SW-620 colon and in the test on SF-268 CNS was more than 100 µM each time.

With `CC(C)c1cccc(C(C)C)c1NC(=O)C(=O)C(C(=O)c1ccc2ccccc2c1)C1OC(=O)c2ccccc21` (stereo not drawn), the TGI in the test on UACC-257 melanoma, in the test on NCI-H460 lung, in the test with SR leukemia, in the test with UO-31 renal, in the test with ACHN renal and in the test on CAKI-1 renal was more than 100 µM each time. Besides, the TGI in the test on OVCAR-3 ovarian is more than 100 µM; in the test on SK-MEL-2 melanoma, more than 100 µM; in the test with IGROV1 ovarian it was more than 100 µM; in the test with COLO 205 colon, more than 100 µM; in the test with SK-MEL-28 melanoma, more than 100 µM; with NCI-H226 lung it was 81.5 µM. For the same molecule, the TGI in the test with SW-620 colon and in the test with SF-268 CNS was more than 100 µM each time.

For `CC(=O)OC1CC2(c3ccccc3)C(=O)c3ccccc3N2O1` (stereo not drawn), the TGI with UACC-257 melanoma, in the test on SR leukemia, in the test with UO-31 renal, in the test on ACHN renal, with SNB-75 CNS and with IGROV1 ovarian was more than 100 µM throughout. Also, the TGI in the test on COLO 205 colon, with SK-MEL-28 melanoma, in the test on NCI-H226 lung, in the test on SW-620 colon and in the test on SF-268 CNS was more than 100 µM each time.

As to `COC(=O)/C=C1/N=C(N(C)/N=C/c2ccccc2)NC1=O`, the TGI with UACC-257 melanoma, in the test on NCI-H460 lung, in the test on SR leukemia, in the test with PC-3 prostate, with UO-31 renal and with SNB-75 CNS was more than 100 µM in each case. In addition, the TGI in the test on CAKI-1 renal, with OVCAR-3 ovarian, in the test on SK-MEL-2 melanoma, in the test with IGROV1 ovarian, in the test with MCF7 breast and with COLO 205 colon was more than 100 µM each time. In addition, the TGI in the test on SK-MEL-28 melanoma, in the test on SW-620 colon and in the test with SF-268 CNS was more than 100 µM in each case.

As for `CCOc1ccc(N=Nc2ccc3oc(=O)c(C(=O)Nc4ccc(OC)cc4)cc3c2)cc1`, the TGI was more than 100 µM in the test with UACC-257 melanoma; 78 µM with UO-31 renal; 93.7 µM in the test with SNB-75 CNS; more than 100 µM with CAKI-1 renal; 67 µM in the test with OVCAR-3 ovarian; 54.4 µM in the test on SK-MEL-2 melanoma. The TGI in the test on IGROV1 ovarian was more than 100 µM; in the test on COLO 205 colon it was more than 100 µM; with SK-MEL-28 melanoma, 68 µM; in the test on SW-620 colon, more than 100 µM; in the test with SF-268 CNS, 78.4 µM.

With `NC(=S)N1N=C2c3ccccc3CC[C@H]2[C@@H]1c1cccs1`, the TGI with UACC-257 melanoma is more than 100 µM; in the test on NCI-H460 lung it was more than 100 µM; in the test on SR leukemia, 63 µM; in the test with UO-31 renal, more than 100 µM; in the test on ACHN renal it was more than 100 µM; in the test on OVCAR-3 ovarian, more than 100 µM. Moreover, the TGI is 79 µM in the test with SK-MEL-2 melanoma; more than 100 µM in the test with IGROV1 ovarian; 40 µM in the test on COLO 205 colon; more than 100 µM in the test with SK-MEL-28 melanoma; more than 100 µM in the test with NCI-H226 lung; more than 100 µM with SW-620 colon. The same molecule had a TGI in the test with SF-268 CNS of more than 100 µM.
